The values below come from patent US7181271B2, “Synergism of photodynamic and electropermeation effect on cell vitality as a novel cytotoxic agent” (Genetronics, Inc., priority 2003, dated 2007).

One test relates to U937 cells. The test can be described thus: Cell viability by trypan blue exclusion after electroporation (250 V, 400 F) and 14 min irradiation. Format: cell-based. Particulars: for Total dead cells for exp. / Dead cells by pulse / Dead cells by light for control: 1 × 10^−5 M agent, 18–22 C; for Total dead cells for exp. / Dead cells by pulse / Dead cells by light for control / Final dead cells: exp/control: U937 cells; for Total dead cells for exp.: pulse 250 V plus 14 min irradiation; for Dead cells by pulse: single pulse 250 V (1.2 kV/cm), 400 F, 11–12 ms, 14 min irradiation; for Dead cells by light for control: unpulsed control, irradiated 14 min; for Final dead cells: exp/control: ratio of total dead cells (pulse + light) to dead cells by light only, 1 × 10^−5 M.

For test [1] the following is noted: type 1 photoreaction; cited from earlier work.

With `COc1cccc2c1C(=O)c1c(O)c3c(c(O)c1C2=O)C[C@@](O)(C(C)=O)C[C@@H]3O[C@H]1C[C@H](N)[C@H](O)[C@H](C)O1` [DAM, daunomycin], in the test with U937 cells, the “Total dead cells for exp.” value worked out at 87.5%, the “Dead cells by pulse” value was 63.4%, the “Dead cells by light for control” value is on record as 17.6% and the “Final dead cells: exp/control” value is reported as 4.9. The “penetration and dark effect (without irradiation)” value in the test with U937 cells (unpulsed U937 cells, without irradiation) is on record as “increases with time”.
Turning to `C=CC1=C(C)c2cc3[nH]c(cc4nc(cc5[nH]c(cc1n2)c(C)c5CCC(=O)O)C(CCC(=O)O)=C4C)c(C)c3C=C` [PP, protoporphyrin], in the test with U937 cells, the “Total dead cells for exp.” value amounted to 91.6%, the “Dead cells by pulse” value was 65.8%, the “Dead cells by light for control” value is given as 18.8% and the “Final dead cells: exp/control” value is 4.9.
As to `CN(C)c1ccc2cc3ccc(=[N+](C)C)cc-3sc2c1.[Cl-]` [TP, thiopyronin], in test [1], the “rate constant of oxidizing guanosine” value was 3.8e+06 M⁻¹ s⁻¹. In the test on U937 cells, the “Total dead cells for exp.” value is given as 98.6%, the “Dead cells by pulse” value came to 80.3%, the “Dead cells by light for control” value is 20.1% and the “Final dead cells: exp/control” value is given as 4.9.
